Here are results for three molecules from article PMC4774911, “Biochemical Screening of Five Protein Kinases from Plasmodium falciparum against 14,000 Cell-Active Compounds” (PLoS ONE, 2016).

What all share (assay): biochemical
Assay [1] addresses MAP2K2 (Homo sapiens, UniProt P36507).
For assay [2], the target named is AURKB (Homo sapiens, UniProt Q96GD4).
The target in assay [3] is PAK4 (Homo sapiens, UniProt O96013).
Assay [4] deals with BUB1 (Homo sapiens, UniProt O43683).
The target of assay [5] is CDK2 (Homo sapiens, UniProt P24941).
The target in assay [6] is T1, LATS1 (Homo sapiens, UniProt O95835).
T1 sequence (O95835 1-1130): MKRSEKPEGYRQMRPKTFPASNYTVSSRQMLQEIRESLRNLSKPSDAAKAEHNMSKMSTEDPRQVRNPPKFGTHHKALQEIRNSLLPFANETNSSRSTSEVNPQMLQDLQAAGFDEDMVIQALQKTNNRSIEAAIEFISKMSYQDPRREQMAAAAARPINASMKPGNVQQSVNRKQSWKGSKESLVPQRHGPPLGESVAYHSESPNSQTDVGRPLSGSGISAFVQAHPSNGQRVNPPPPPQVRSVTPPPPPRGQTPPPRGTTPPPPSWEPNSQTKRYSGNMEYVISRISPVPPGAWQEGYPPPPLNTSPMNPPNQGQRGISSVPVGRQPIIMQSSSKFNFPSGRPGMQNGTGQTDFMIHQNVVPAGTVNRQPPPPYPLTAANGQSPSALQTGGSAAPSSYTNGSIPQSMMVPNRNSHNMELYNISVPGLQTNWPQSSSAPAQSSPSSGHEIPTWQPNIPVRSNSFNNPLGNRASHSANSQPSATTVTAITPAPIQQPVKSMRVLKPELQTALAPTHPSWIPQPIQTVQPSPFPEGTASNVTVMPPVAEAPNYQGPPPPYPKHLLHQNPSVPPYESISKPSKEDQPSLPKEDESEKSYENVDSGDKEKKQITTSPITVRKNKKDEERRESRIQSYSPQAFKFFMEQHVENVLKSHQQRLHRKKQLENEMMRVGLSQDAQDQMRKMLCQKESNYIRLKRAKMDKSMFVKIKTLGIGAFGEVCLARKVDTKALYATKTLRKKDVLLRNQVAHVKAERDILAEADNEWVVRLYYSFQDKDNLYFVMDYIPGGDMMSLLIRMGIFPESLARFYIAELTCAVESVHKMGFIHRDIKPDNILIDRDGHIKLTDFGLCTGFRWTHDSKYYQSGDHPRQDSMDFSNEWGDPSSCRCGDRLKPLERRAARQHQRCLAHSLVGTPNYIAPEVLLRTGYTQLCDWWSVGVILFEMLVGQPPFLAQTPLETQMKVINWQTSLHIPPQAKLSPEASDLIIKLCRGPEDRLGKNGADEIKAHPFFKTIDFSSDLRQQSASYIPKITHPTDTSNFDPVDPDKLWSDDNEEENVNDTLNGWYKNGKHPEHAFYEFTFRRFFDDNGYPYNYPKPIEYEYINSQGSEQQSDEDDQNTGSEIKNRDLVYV

The target of assay [7] is T2, TBK1 (Homo sapiens, UniProt Q9UHD2).
T2 sequence (Q9UHD2 1-729): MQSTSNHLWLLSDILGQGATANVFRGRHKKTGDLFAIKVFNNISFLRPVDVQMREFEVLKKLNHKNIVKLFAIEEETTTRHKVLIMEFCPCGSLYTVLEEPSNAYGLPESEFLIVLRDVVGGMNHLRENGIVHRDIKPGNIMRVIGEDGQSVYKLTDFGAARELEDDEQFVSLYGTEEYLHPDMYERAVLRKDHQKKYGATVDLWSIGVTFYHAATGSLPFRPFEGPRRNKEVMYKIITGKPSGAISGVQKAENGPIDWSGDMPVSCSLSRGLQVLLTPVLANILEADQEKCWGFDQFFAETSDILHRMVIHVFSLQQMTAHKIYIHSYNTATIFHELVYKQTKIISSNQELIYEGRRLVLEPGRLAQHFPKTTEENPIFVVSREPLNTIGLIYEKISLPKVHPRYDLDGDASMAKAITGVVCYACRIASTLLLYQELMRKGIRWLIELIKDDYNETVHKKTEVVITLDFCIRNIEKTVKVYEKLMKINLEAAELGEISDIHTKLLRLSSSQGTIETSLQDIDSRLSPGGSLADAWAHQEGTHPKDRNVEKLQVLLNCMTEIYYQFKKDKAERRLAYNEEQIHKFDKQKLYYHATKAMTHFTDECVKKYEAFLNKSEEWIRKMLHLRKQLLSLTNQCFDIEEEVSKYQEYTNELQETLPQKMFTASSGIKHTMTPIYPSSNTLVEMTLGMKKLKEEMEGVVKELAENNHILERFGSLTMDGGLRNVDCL

The target in assay [8] is CIT (Homo sapiens, UniProt O14578).
Assay [9] addresses YES1 (Homo sapiens, UniProt P07947).
Assay [10] concerns the target PIK3R4 (Homo sapiens, UniProt Q99570).

The structures appear in SMILES notation. Values joined by “and” are separate entries in the source; they are usually repeats but may differ in a detail not shown here. Identical values can stand only once. A value given as a limit tells only on which side of the number the result lay.

Sequence of MAP2K2 (P36507 whole entry): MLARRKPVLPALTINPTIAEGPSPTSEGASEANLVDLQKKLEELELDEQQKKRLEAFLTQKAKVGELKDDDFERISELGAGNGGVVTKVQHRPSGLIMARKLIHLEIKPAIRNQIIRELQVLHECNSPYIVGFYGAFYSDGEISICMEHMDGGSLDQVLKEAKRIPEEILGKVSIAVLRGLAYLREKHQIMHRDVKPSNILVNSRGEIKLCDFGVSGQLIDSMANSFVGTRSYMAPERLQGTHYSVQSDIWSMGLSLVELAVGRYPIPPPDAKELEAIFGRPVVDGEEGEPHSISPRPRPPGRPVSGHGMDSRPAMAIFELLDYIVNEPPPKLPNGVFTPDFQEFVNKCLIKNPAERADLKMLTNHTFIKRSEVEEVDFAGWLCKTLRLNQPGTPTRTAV
Sequence of BUB1 (O43683 whole entry): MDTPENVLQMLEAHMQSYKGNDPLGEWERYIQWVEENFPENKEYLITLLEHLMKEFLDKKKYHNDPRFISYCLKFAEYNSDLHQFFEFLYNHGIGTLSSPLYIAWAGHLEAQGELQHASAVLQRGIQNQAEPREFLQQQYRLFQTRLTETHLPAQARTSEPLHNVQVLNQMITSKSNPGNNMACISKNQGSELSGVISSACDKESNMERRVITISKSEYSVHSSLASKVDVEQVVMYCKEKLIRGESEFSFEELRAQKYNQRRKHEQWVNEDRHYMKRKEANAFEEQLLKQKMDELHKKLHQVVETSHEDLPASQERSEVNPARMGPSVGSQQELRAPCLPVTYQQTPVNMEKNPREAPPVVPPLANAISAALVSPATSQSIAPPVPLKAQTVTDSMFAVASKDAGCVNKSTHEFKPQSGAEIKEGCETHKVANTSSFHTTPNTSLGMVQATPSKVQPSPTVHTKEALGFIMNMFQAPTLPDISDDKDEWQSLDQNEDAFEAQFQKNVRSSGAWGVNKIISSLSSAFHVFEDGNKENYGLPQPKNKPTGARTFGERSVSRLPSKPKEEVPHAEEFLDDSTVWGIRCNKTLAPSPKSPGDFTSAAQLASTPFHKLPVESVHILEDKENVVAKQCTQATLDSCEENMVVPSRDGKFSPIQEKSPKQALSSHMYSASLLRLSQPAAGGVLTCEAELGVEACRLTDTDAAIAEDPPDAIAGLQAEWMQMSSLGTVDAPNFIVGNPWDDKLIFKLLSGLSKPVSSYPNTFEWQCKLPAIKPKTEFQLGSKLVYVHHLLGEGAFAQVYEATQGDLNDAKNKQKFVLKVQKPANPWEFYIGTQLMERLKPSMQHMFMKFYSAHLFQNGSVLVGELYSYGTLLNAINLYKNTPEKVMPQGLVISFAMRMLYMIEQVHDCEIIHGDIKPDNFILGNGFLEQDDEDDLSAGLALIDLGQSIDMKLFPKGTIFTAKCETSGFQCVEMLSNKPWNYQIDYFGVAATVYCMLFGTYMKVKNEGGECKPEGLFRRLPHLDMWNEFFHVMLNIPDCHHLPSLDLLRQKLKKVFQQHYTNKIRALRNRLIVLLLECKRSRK
Sequence of YES1 (P07947 whole entry): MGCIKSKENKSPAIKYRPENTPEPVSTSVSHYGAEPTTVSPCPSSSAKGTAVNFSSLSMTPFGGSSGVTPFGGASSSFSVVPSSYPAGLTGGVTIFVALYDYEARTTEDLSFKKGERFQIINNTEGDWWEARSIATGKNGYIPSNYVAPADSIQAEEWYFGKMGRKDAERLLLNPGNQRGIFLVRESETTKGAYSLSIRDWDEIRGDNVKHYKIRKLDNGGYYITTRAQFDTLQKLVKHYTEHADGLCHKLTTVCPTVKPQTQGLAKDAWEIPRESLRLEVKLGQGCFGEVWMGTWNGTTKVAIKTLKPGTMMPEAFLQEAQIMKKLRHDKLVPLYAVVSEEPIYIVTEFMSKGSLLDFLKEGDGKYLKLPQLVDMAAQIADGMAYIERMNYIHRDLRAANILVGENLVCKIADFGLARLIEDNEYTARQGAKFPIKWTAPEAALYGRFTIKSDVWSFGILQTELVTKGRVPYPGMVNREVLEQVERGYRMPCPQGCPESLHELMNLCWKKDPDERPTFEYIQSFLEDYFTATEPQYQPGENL
Sequence of CIT (O14578 whole entry): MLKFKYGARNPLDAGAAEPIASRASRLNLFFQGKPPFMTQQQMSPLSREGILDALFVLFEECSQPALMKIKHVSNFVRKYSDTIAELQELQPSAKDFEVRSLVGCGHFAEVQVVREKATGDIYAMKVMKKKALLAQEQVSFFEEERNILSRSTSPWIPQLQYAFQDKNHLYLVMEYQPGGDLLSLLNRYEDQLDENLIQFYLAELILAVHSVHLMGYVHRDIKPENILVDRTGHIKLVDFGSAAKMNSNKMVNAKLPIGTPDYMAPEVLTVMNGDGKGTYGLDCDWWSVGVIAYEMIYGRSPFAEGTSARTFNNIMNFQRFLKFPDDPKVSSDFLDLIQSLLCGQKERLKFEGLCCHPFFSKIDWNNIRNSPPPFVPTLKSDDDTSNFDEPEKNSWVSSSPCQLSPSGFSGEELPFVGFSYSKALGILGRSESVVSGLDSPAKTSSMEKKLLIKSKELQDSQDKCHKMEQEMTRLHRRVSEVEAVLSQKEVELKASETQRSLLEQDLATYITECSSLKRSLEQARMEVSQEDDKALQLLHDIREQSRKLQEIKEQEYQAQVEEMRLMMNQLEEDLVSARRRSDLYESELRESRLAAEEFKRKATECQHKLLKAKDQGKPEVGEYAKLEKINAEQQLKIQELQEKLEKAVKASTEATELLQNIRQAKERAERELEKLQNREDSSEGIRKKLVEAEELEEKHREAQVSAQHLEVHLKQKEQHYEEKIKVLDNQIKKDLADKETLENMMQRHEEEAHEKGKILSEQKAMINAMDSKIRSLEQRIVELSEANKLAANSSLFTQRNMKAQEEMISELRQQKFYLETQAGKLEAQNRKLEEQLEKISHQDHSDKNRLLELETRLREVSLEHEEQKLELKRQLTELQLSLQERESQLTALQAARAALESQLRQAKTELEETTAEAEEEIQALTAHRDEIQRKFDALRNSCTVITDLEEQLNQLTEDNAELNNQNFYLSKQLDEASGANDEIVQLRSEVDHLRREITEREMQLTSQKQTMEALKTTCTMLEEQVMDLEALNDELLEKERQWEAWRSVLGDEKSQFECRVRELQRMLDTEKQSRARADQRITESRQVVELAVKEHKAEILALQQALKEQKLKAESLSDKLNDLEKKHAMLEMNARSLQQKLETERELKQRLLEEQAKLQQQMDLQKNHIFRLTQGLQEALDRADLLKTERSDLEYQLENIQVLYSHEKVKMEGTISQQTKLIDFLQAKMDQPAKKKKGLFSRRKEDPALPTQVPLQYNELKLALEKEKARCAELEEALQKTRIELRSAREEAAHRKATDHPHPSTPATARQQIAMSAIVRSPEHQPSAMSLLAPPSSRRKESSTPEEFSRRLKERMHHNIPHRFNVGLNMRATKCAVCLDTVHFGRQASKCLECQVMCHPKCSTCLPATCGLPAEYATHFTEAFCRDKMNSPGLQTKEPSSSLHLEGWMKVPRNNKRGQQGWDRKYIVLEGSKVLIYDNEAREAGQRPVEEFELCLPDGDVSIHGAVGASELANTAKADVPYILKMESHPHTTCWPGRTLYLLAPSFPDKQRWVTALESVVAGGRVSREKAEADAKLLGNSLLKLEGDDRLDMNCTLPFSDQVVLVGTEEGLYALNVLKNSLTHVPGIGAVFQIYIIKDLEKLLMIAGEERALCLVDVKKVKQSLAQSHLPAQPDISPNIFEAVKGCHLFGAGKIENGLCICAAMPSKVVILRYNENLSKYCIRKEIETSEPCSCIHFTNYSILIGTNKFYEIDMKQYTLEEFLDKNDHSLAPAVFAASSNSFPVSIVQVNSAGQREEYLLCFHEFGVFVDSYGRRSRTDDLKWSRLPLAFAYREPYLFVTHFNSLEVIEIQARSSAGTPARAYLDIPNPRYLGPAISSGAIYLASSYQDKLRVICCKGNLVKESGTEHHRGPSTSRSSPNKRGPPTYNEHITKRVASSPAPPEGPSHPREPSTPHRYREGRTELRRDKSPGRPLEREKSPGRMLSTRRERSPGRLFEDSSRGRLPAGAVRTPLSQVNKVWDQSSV
Sequence of AURKB (Q96GD4 whole entry): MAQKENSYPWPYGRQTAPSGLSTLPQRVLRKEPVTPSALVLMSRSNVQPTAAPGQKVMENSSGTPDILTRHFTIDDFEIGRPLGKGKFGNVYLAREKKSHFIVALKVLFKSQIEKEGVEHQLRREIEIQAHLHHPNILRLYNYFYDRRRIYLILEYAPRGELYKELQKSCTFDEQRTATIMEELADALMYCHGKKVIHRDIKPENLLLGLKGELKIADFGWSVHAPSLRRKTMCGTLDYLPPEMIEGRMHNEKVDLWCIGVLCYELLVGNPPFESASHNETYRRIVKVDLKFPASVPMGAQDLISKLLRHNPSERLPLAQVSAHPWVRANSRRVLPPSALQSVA
Sequence of PAK4 (O96013 whole entry): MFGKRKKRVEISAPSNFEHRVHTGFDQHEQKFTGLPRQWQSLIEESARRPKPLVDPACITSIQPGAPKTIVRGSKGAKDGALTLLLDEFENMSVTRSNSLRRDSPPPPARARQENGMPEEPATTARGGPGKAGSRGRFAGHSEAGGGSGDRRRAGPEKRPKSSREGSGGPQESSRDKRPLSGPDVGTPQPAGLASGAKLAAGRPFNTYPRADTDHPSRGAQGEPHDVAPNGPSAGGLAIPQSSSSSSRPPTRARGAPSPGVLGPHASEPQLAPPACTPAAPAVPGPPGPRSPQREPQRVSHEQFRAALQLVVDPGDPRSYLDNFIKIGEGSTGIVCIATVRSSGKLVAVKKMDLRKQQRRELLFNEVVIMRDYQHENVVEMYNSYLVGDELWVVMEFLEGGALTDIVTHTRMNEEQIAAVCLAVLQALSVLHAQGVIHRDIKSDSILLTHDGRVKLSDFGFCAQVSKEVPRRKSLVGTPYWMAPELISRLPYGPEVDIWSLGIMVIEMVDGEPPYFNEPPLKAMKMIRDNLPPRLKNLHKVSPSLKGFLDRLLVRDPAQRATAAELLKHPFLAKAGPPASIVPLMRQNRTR

Turning to `CN1CCN(c2ccc(Nc3ncc(C#N)c(Nc4ccccc4C(N)=O)n3)cc2)CC1.Cl` [TCMDC-134116], the concentration for half-maximal inhibition (IC50) in [1] was 830 nM and 980 nM; in assay [2], 40 nM and 64 nM; in assay [3] it was 380 nM and 420 nM; in [4], 370 nM and 320 nM; in assay [5] it was 360 nM and 350 nM; in assay [6], 210 nM. In addition, the IC50 in assay [7] was 530 nM and 510 nM; in assay [8], 5700 nM and 5800 nM; in [9], 120 nM and 150 nM; in [10], 2200 nM.
With `Cl.NCC1(c2nc(-c3ccc(Cl)c(O)c3)c(-c3ccncc3)[nH]2)CCCCC1` [TCMDC-141154], the IC50 in [1] is 9000 nM and > 20000 nM; in [2], over 20000 nM; in assay [3] it was 9100 nM and > 20000 nM; in assay [4], 240 nM and 170 nM; in assay [5], over 20000 nM; in assay [6], 1100 nM. In addition, the concentration for half-maximal inhibition (IC50) in assay [7] is over 20000 nM; in [8] it was 160 nM and 280 nM; in assay [9] it was 4400 nM and 7700 nM; in [10], over 20000 nM.
With `CN(C)CC(O)COc1ccc(Nc2ncc([N+](=O)[O-])c(Nc3ccccc3O)n2)cc1.O=C(O)C(F)(F)F` (stereo not drawn) [TCMDC-141399], the IC50 was over 20000 nM in [1]; 4200 nM in [2]; 9000 nM and 6800 nM in assay [3]; over 20000 nM in assay [4]; over 20000 nM in assay [5]; over 20000 nM in assay [6]. Moreover, the half-maximal inhibitory concentration (IC50) in assay [7] is over 20000 nM; in [8], 4400 nM; in assay [9], over 20000 nM; in assay [10] it was over 20000 nM.
